# Assay results reported in patent publication US10155764B2, “Therapeutic compounds and uses thereof” (GENENTECH, INC., priority 2014, dated 2018).
# Target: PCAF719-832 bromodomain (Homo sapiens (Human), UniProt Q92831)
# Assay: PCAF AlphaLisa binding assay
# Conditions: PCAF bromodomain 225 nM, biotinylated small molecule ligand 6 nM
# Chain of PCAF719-832 bromodomain (Q92831 719-832): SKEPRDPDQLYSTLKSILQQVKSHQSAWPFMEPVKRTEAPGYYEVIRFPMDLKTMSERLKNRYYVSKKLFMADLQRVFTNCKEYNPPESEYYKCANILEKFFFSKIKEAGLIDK
row,SMILES,IC50
1,"COc1ccc2c(NCCN(C)C)nn(C)c(=O)c2c1 [Example 4, 4-((2-(dimethylamino)ethyl)amino)-7-methoxy-2-methylphthalazin-1(2H)-one]",470 nM
2,"CN(C)[C@H]1c2ccccc2C[C@H]1Nc1nn(C)c(=O)c2ccccc12 [Example 47B, 4-(((1S,2R)-1-(dimethylamino)-2,3-dihydro-1H-inden-2-yl)amino)-2-methylphthalazin-1(2H)-one]",> 5000 nM
3,"Cc1cccc2c(=O)n(C)nc(N[C@H](C)[C@@H](c3ccccc3)N(C)C)c12 (single isomer, unassigned) [Example 70B]",1800 nM
4,"CC(CN(C)C)Nc1nn(C)c(=O)c2ccncc12 (racemic) [Example 12, 4-((1-(dimethylamino)propan-2-yl)amino)-2-methylpyrido[3,4-d]pyridazin-1(2H)-one]",220 nM
5,"CN(C)CCNc1nn(C)c(=O)c2c(F)cccc12 [Example 6, 4-((2-(dimethylamino)ethyl)amino)-8-fluoro-2-methylphthalazin-1(2H)-one]",87 nM
6,"C[C@@H](CNc1nn(C)c(=O)c2cccnc12)N(C)C (single isomer, unassigned) [Example 7A]",860 nM
7,"C[C@H](Nc1nn(C)c(=O)c2cccnc12)[C@H](c1ccc(C(=O)N(C)Cc2ccccc2)cc1)N(C)C (single isomer, unassigned) [Example 84]",56 nM
8,"CN(C)C(CNc1nn(C)c(=O)c2ccccc12)c1ccccc1F (racemic) [Example 26, 4-((2-(dimethylamino)-2-(2-fluorophenyl)ethyl)amino)-2-methylphthalazin-1(2H)-one]",110 nM
9,"C[C@H](CN(C)C)Nc1nn(C)c(=O)c2cccnc12 (single isomer, unassigned) [Example 8B]",> 5000 nM
10,"C[C@H](Nc1nn(C)c(=O)c2cccnc12)[C@H](c1ccc(C(=O)O)cc1)N(C)C [Example 81, 4-((1S,2S)-1-(dimethylamino)-2-((6-methyl-5-oxo-5,6-dihydropyrido[2,3-d]pyridazin-8-yl)amino)propyl)benzoic acid]",98 nM

# Now from value to molecule:
row,IC50,SMILES
1,> 5000 nM,"Cn1nc(N[C@@H]2CCCC[C@@H]2N)c2ncccc2c1=O (single isomer, unassigned) [Example 14A]"
2,240 nM,"CN(C)C(CNc1nn(C)c(=O)c2[nH]ccc12)c1ccccc1 (racemic) [Example 10, 4-((2-(dimethylamino)-2-phenylethyl)amino)-6-methyl-1H-pyrrolo[2,3-d]pyridazin-7(6H)-one]"
3,36 nM,"Cc1cccc2c(=O)n(C)nc(N[C@@H](C)[C@H](c3ccccc3)N(C)C)c12 (single isomer, unassigned) [Example 70A]"
4,86 nM,"CN(C)C(CNc1nn(C)c(=O)c2cccnc12)c1ccccc1 (stereo not shown) [Example 1, 8-((2-(dimethylamino)-2-phenylethyl)amino)-6-methylpyrido[2,3-d]pyridazin-5(6H)-one]"
5,2200 nM,"CN(C)[C@@H](CNc1nn(C)c(=O)c2cccnc12)c1ccccc1 [Example 1B, (R)-8-((2-(dimethylamino)-2-phenylethyl)amino)-6-methylpyrido[2,3-d]pyridazin-5(6H)-one]"
6,36 nM,"C[C@H](Nc1nn(C)c(=O)c2ccccc12)[C@H](c1ccc(OCc2ccccc2)cc1)N(C)C (stereo in doubt) [Example 77, 4-((1-(4-(benzyloxy)phenyl)-1-(dimethylamino)propan-2-yl)amino)-2-methylphthalazin-1(2H)-one]"
7,12000 nM,"Cn1nc(N[C@@H]2CCCC[C@H]2N)c2ccccc2c1=O (racemic) [Example 35, 4-(((1R,2R)-2-aminocyclohexyl)amino)-2-methylphthalazin-1(2H)-one]"
8,73 nM,"COc1ccc([C@@H]([C@H](C)Nc2nn(C)c(=O)c3ccccc23)N(C)C)cc1 (single isomer, unassigned) [Example 79]"
9,45 nM,"CN(C)[C@H](CNc1nn(C)c(=O)c2cccnc12)c1ccccc1 [Example 1A, (S)-8-((2-(dimethylamino)-2-phenylethyl)amino)-6-methylpyrido[2,3-d]pyridazin-5(6H)-one]"
